From ChEMBL document CHEMBL1152970, “Optimization of a series of 2,4-diaminopyridines as neuropeptide Y Y1 receptor antagonists with reduced hERG activity” (Bioorg Med Chem Lett, 2009)

Legend:
physchem = details: octanol/water, pH 7.4
[1] = Ratio of drug level in brain to plasma in mdr1a deficient CF-1 mouse at 30 mg/kg, ip after 30 mins; type: ADME, organism-based; parameters: dose 30 mg/kg, route intraperitoneal; details: CF-1 (mdr1a deficient)
[2] = Plasma concentration in mdr1a deficient CF-1 mouse at 30 mg/kg, ip after 30 mins; type: ADME, organism-based; parameters: dose 30 mg/kg, route intraperitoneal; details: CF-1 (mdr1a deficient)
Brain [3] = assay: Drug level in C57BL/6 mouse brain at 30 mg/kg, ip after 30 mins; type: ADME, organism-based, C57BL6; parameters: dose 30 mg/kg, route intraperitoneal; details: in vivo, 0.5 h
Brain [4] = assay: Drug level in mdr1a deficient CF-1 mouse brain at 30 mg/kg, ip after 30 mins; type: ADME, organism-based; parameters: dose 30 mg/kg, route intraperitoneal; details: in vivo, 0.5 h
[5] = Ratio of drug level in brain to plasma in C57BL/6 mouse at 30 mg/kg, ip after 30 mins; type: ADME, organism-based, C57BL6; parameters: dose 30 mg/kg, route intraperitoneal
[6] = Plasma concentration in C57BL/6 mouse plasma at 30 mg/kg, ip after 30 mins; type: ADME, organism-based, C57BL6; parameters: dose 30 mg/kg, route intraperitoneal

Row | logD (physchem) | SMILES | further results
1 | 1 | Cc1nc(SCc2cc(N3CCOCC3)cc(NCC#N)n2)n(C)c1C | 
2 | 2.6 | CCc1oc(SCc2cc(N3CCOCC3)cc(NCC#N)n2)nc1C | 
3 | 2.2 | CCNc1cc(N2CCOCC2)cc(CCc2nc(C)c(CC)o2)n1 | 
4 | 2.1 | Cc1nc(OCc2cc(N3CCOCC3)cc(NCC#N)n2)oc1C | 
5 | 2.8 | CCOC(=O)CNc1cc(N2CCOCC2)cc(CCc2nc(C)c(CC)o2)n1 | 
6 | 2.5 | CCCNc1cc(N2CCOCC2)cc(CCc2nc(C)c(CC)o2)n1 | 
7 | > 4 | CCc1sc(CCc2cc(N3CCOCC3)cc(NC(C)c3cc(Cl)cc(NC(=O)OC(C)C)c3)n2)nc1C (stereo unspecified) | 
8 | 2 | Cc1nc(SCc2cc(N3CCOCC3)cc(NCC#N)n2)oc1C | 
9 | 2.4 | CCc1oc(CCc2cc(N3CCOCC3)cc(NCC#N)n2)nc1C | 
10 | 2.3 | CCc1oc(CCc2cc(N3CCOCC3)cc(NC(C)=O)n2)nc1C | 
11 | 2.4 | CCc1oc(CCc2cc(N3CCOCC3)cc(NC(C)C)n2)nc1C | 
12 | 1.7 | CCc1oc(CCc2cc(N3CCOCC3)cc(NC)n2)nc1C | 
13 | 3.5 | CCc1oc(CCc2cc(N3CCOCC3)cc(NCC(F)(F)F)n2)nc1C | 
14 | 2 | CCc1oc(CCc2cc(N3CCOCC3)cc(NCCC#N)n2)nc1C | 
15 | 2.4 | Cc1nc(SCc2cc(N3CCOCC3)cc(NCC#N)n2)sc1C | Kp at 0.5 h [1]: 0.9; concentration at 0.5 h [2]: 5.2 µM; Drug uptake (Brain [3]): 0.9 nmol/g; Drug uptake (Brain [4]): 4.7 nmol/g; Kp at 0.5 h [5]: 0.27; concentration at 0.5 h [6]: 3.4 µM
